Measurements reported in patent US20260159523A1, “PESTICIDALLY ACTIVE HETEROCYCLIC DERIVATIVES WITH SULFUR CONTAINING SUBSTITUENTS” (SYNGENTA CROP PROTECTION AG, priority 2022, published 2026).

Experiments:
Format in all cases: in vivo
Chilo suppressalis = assay: Activity against Chilo suppressalis (striped rice stemborer), artificial diet; conditions: 144 h, application rate 200 ppm, L2 larvae, 6 days after infestation
Protocol: Activity Against Chilo suppressalis (Striped Rice Stemborer)
24-well microtiter plates with artificial diet were treated with aqueous test solutions prepared from 10'000 ppm DMSO stock solutions by pipetting. After drying, the plates were infested with L2 larvae (6-8 per well). The samples were assessed for mortality, anti-feeding effect, and growth inhibition in comparison to untreated samples 6 days after infestation. Control of Chilo suppressalis by a test sample is given when at least one of the categories mortality, anti-feedant effect, and growth inhibition is higher than the untreated sample.

Diabrotica balteata = assay: Activity against Diabrotica balteata (corn root worm), maize sprouts; conditions: 96 h, application rate 200 ppm, L2 larvae, 4 days after infestation, read-out: effect in at least one of the two categories (mortality or growth inhibition)
Protocol: Activity Against Diabrotica balteata (Corn Root Worm)
Maize sprouts placed onto an agar layer in 24-well microtiter plates were treated with aqueous test solutions prepared from 10'000 ppm DMSO stock solutions by spraying. After drying, the plates were infested with L2 larvae (6 to 10 per well). The samples were assessed for mortality and growth inhibition in comparison to untreated samples 4 days after infestation.

Euschistus heros = assay: Activity against Euschistus heros (neotropical brown stink bug), soybean leaves; conditions: 120 h, application rate 200 ppm, N2 nymphs, 5 days after infestation, read-out: effect in at least one of the two categories (mortality or growth inhibition)
Protocol: Activity Against Euschistus heros (Neotropical Brown Stink Bug)
Soybean leaves on agar in 24-well microtiter plates were sprayed with aqueous test solutions prepared from 10'000 ppm DMSO stock solutions. After drying the leaves were infested with N2 nymphs. The samples were assessed for mortality and growth inhibition in comparison to untreated samples 5 days after infestation.

Plutella xylostella = assay: Activity against Plutella xylostella (diamond back moth), artificial diet; conditions: 192 h, application rate 200 ppm, eggs, 8 days after infestation, read-out: effect in at least one of the two categories (mortality or growth inhibition)
Protocol: Activity Against Plutella xylostella (Diamond Back Moth)
24-well microtiter plates with artificial diet were treated with aqueous test solutions prepared from 10'000 ppm DMSO stock solutions by pipetting. After drying, Plutella eggs were pipetted through a plastic stencil onto a gel blotting paper and the plate was closed with it. The samples were assessed for mortality and growth inhibition in comparison to untreated samples 8 days after infestation.

Spodoptera littoralis = assay: Activity against Spodoptera littoralis (Egyptian cotton leaf worm), cotton leaf discs; conditions: foliar, 72 h, application rate 200 ppm, L1 larvae, 3 days after infestation
Protocol: Activity Against Spodoptera littoralis (Egyptian Cotton Leaf Worm)
Cotton leaf discs were placed onto agar in 24-well microtiter plates and sprayed with aqueous test solutions prepared from 10'000 ppm DMSO stock solutions. After drying the leaf discs were infested with five L1 larvae. The samples were assessed for mortality, anti-feeding effect, and growth inhibition in comparison to untreated samples 3 days after infestation. Control of Spodoptera littoralis by a test sample is given when at least one of the categories mortality, anti-feedant effect, and growth inhibition is higher than the untreated sample.

Myzus persicae [1] = assay: Activity against Myzus persicae (green peach aphid), feeding/contact activity; conditions: foliar, 144 h, application rate 200 ppm, sunflower leaf discs, mixed ages, 6 days after infestation
Protocol: Activity Against Myzus persicae (Green Peach Aphid) Feeding/Contact Activity
Sunflower leaf discs were placed onto agar in a 24-well microtiter plate and sprayed with aqueous test solutions prepared from 10'000 ppm DMSO stock solutions. After drying, the leaf discs were infested with an aphid population of mixed ages. The samples were assessed for mortality 6 days after infestation.

Myzus persicae [2] = assay: Activity against Myzus persicae (green peach aphid), systemic activity; conditions: 144 h, test rate 24 ppm, pea seedling roots in test solution, 6 days
Protocol: Activity Against Myzus persicae (Green Peach Aphid) Systemic Activity
Roots of pea seedlings infested with an aphid population of mixed ages were placed directly into aqueous test solutions prepared from 10'000 DMSO stock solutions. The samples were assessed for mortality 6 days after placing seedlings into test solutions.

CCS(=O)(=O)c1cc(C2(C#N)CC2)cnc1-c1coc2ccc(Br)cc2c1=O [P.5, 1-[6-(6-bromo-4-oxo-chromen-3-yl)-5-ethylsulfonyl-3-pyridyl]-cyclopropanecarbonitrile]
≥ 80%: percent control (mortality, anti-feedant effect or growth inhibition) at 200 ppm (Chilo suppressalis) | percent effect (mortality or growth inhibition) at 200 ppm (Diabrotica balteata) | percent effect (mortality or growth inhibition) at 200 ppm (Euschistus heros) | percent effect (mortality or growth inhibition) at 200 ppm (Plutella xylostella) | percent control (mortality, anti-feedant effect or growth inhibition) at 200 ppm (Spodoptera littoralis)

CCS(=O)(=O)c1cc(C2(C#N)CC2)cnc1-c1coc2ccc(I)cc2c1=O [P.6, 1-[5-ethylsulfonyl-6-(6-iodo-4-oxo-chromen-3-yl)-3-pyridyl]cyclo-propanecarbonitrile]
≥ 80%: percent control (mortality, anti-feedant effect or growth inhibition) at 200 ppm (Chilo suppressalis) | percent effect (mortality or growth inhibition) at 200 ppm (Diabrotica balteata) | percent effect (mortality or growth inhibition) at 200 ppm (Euschistus heros) | mortality at 200 ppm (Myzus persicae [1]) | percent effect (mortality or growth inhibition) at 200 ppm (Plutella xylostella) | percent control (mortality, anti-feedant effect or growth inhibition) at 200 ppm (Spodoptera littoralis)

CCS(=O)(=O)c1cc(C2(C#N)CC2)cnc1-c1coc2ccc(C(F)(F)F)cc2c1=O [P.1, 1-[5-ethylsulfonyl-6-[4-oxo-6-(trifluoromethyl)chromen-3-yl]-3-pyridyl]cyclopropanecarbonitrile]
≥ 80%: percent control (mortality, anti-feedant effect or growth inhibition) at 200 ppm (Chilo suppressalis) | percent effect (mortality or growth inhibition) at 200 ppm (Diabrotica balteata) | percent effect (mortality or growth inhibition) at 200 ppm (Euschistus heros) | mortality at 200 ppm (Myzus persicae [1]) | mortality at 24 ppm (Myzus persicae [2]) | percent effect (mortality or growth inhibition) at 200 ppm (Plutella xylostella) | percent control (mortality, anti-feedant effect or growth inhibition) at 200 ppm (Spodoptera littoralis)

CCS(=O)(=O)c1cc(C2(C#N)CC2)cnc1-c1coc2ccc(-c3cc(F)cc(F)c3)cc2c1=O [P.7, 1-[6-[6-(3,5-difluorophenyl)-4-oxo-chromen-3-yl]-5-ethylsulfonyl-3-pyridyl]-cyclopropanecarbonitrile]
≥ 80%: percent effect (mortality or growth inhibition) at 200 ppm (Diabrotica balteata) | mortality at 200 ppm (Myzus persicae [1]) | percent control (mortality, anti-feedant effect or growth inhibition) at 200 ppm (Spodoptera littoralis)

CCS(=O)(=O)c1cc(C2(C#N)CC2)cnc1-c1coc2ccc(Cl)cc2c1=O [P.3, 1-[6-(6-chloro-4-oxo-chromen-3-yl)-5-ethylsulfonyl-3-pyridyl]-cyclopropanecarbonitrile]
≥ 80%: percent control (mortality, anti-feedant effect or growth inhibition) at 200 ppm (Chilo suppressalis) | percent effect (mortality or growth inhibition) at 200 ppm (Diabrotica balteata) | percent effect (mortality or growth inhibition) at 200 ppm (Euschistus heros) | mortality at 200 ppm (Myzus persicae [1]) | percent effect (mortality or growth inhibition) at 200 ppm (Plutella xylostella) | percent control (mortality, anti-feedant effect or growth inhibition) at 200 ppm (Spodoptera littoralis)

CCS(=O)(=O)c1cc(C2(C#N)CC2)cnc1-c1coc2ccc(-c3ccc(F)cc3)cc2c1=O [P.8, 1-[5-ethylsulfonyl-6-[6-(4-fluorophenyl)-4-oxo-chromen-3-yl]-3-pyridyl]-cyclopropanecarbonitrile]
≥ 80%: percent control (mortality, anti-feedant effect or growth inhibition) at 200 ppm (Chilo suppressalis) | percent effect (mortality or growth inhibition) at 200 ppm (Plutella xylostella)

CCS(=O)(=O)c1cc(C2(C#N)CC2)cnc1-c1coc2ccc(C#N)cc2c1=O [P.4, 3-[5-(1-cyanocyclopropyl)-3-ethylsulfonyl-2-pyridyl]-4-oxo-chromene-6-carbonitrile]
≥ 80%: mortality at 24 ppm (Myzus persicae [2]) | percent effect (mortality or growth inhibition) at 200 ppm (Plutella xylostella)

CCS(=O)(=O)c1cc(C2(C#N)CC2)cnc1-c1coc2ccc(F)cc2c1=O [P.2, 1-[5-ethylsulfonyl-6-(6-fluoro-4-oxo-chromen-3-yl)-3-pyridyl]cyclo-propanecarbonitrile]
≥ 80%: percent control (mortality, anti-feedant effect or growth inhibition) at 200 ppm (Chilo suppressalis) | percent effect (mortality or growth inhibition) at 200 ppm (Diabrotica balteata) | percent effect (mortality or growth inhibition) at 200 ppm (Euschistus heros) | mortality at 24 ppm (Myzus persicae [2]) | percent effect (mortality or growth inhibition) at 200 ppm (Plutella xylostella) | percent control (mortality, anti-feedant effect or growth inhibition) at 200 ppm (Spodoptera littoralis)
